From patent US10542753B2, “Compositions for improving budbreak and flowering” (Zelam Limited, priority 2015, dated 2020)

Columns and labels:
Gold3 [1] = test: Trial 6: sprayed trial after good winter chill (Hawkes Bay); type: in vivo, Actinidia chinensis Planch. var. chinensis 'Zesy002'
Method: (§1) These 2014 sprayed trials were performed in the Bay of Plenty (Trial 5, five replicates, each a bay comprising two vines with ten assessment canes per rep, five on each side of the bay) and Hawkes Bay, NZ (Trial 6, four replicates, each a bay comprising four vines with twenty assessment canes per rep, five from each vine). HC (700 litres/Ha) and Examples 9 and 10 (800 litres/Ha) were sprayed on 16-Aug (37 DBNB, Trial 5) and 11-Aug (30 DBNB, Trial 6). FIG. 7 illustrates the progression of budbreak in Trial 5 and FIG. 8 illustrates the progression of budbreak in Trial 6.
(§2) Under current management practices Gold3 growers require at least about 1.8 single flowers per winter bud (SFWB) to achieve the recommended packout of 17,000 trays/Ha.

Gold3 kiwifruit = test: Trial 4: cane painting, budbreak and flowering; type: in vivo, Actinidia chinensis Planch. var. chinensis 'Zesy002'; set-up: Spread of BB / Advance in Midpoint / Reduction in Spread: unit not given here; conditions: for KFFS: king flowers per floral shoot; for KFWB: king flowers per winter bud; for Advance in Midpoint / Reduction in Spread: vs untreated
Method: This cane painting experiment was performed in a Bay of Plenty orchard in 2013 following a winter with poor chill in the key months of May and June. Low-medium vigour canes typical of the orchard were painted with either HC or Example 9 on 13-Aug and 20-Aug, 34 and 27 days before natural budbreak which occurred on 16-Sep. […] FIG. 5 illustrates the progression of budbreak and FIG. 6 illustrates the progress of flowering in Trial 4.

Psa = test: Trial 3: whole-vine spray in Psa-infected orchard, Psa leaf spotting; type: in vivo, Hayward kiwifruit vines; conditions: for % Incidence: Psa leaf spotting
From the text: A trial in which whole Hayward kiwifruit vines were sprayed was established in the Bay of Plenty in 2013. There were twelve replicates and two sets of untreated vines. HC (700 litres/Ha) and the composition of Example 8 (800 litres/Ha) were applied on three dates using a boom sprayer designed to produce spray deposition typical of an orchard air blast sprayer. Of particular interest in this trial was the prevalence of Psa leaf spotting that became evident in late spring, particularly in the early HC-sprayed vines. Vines were assessed for Psa leaf spotting by rating 40 randomly selected leaves (10 on each side of the two leaders that made up each vine) on a 1-5 scale (Table 4).

Granny Smith Apples = test: Trial 8: sprayed trees, budbreak, flowering and fruit set on fruiting spurs; type: in vivo
Method: Trial 8: Use on Granny Smith Apples was evaluated in New Plymouth, New Zealand following a poor winter chill in 2013. Treatments were applied on 9 Aug. 2013 at 200 L/Ha using a manual backpack sprayer in a replicated trial (4 replications of two tree plots).

Gold3 [2] = test: Trial 5: sprayed trial after poor winter chill (Bay of Plenty); type: in vivo, Actinidia chinensis Planch. var. chinensis 'Zesy002'
Method: as §1, §2

Hayward kiwifruit vines = test: Trial 2: cane painting, salicylic acid dose-response, budbreak; type: in vivo, Actinidia deliciosa
Method: A cane painting experiment was performed in 2012 in a Hayward kiwifruit orchard in Taranaki, New Zealand. Canes of 1.2 m average length from 33 vines were tagged and either left untreated or painted with one of HC, Examples 5-8 and Comparative Examples 2 and 3 on 9-Aug, 50 DBNB (28-Sep). Midpoints and spread were calculated for budbreak (Table 3) but there were insufficient data to perform the calculations for flowering. […] FIG. 3 illustrates the progression of budbreak in Trial 2. FIG. 4 illustrates the progress of flowering in Trial 2.

Hayward kiwifruit = test: Trial 1: cane painting, budbreak and flowering; type: in vivo, Actinidia deliciosa; conditions: for Spread of BB: spread = 4x standard deviation; for Advance in Midpoint / Reduction in Spread: vs untreated
Method: A cane painting experiment was performed in a Hayward kiwifruit orchard in the Bay of Plenty New Zealand in 2010 following a winter with average winter chill. Low-medium vigour canes of 1.6 m average length from 36 vines were tagged and either left untreated or painted with one of HC, Examples 1-4 and Comparative Example 1. The date of painting (6-Aug) was 56 days before natural budbreak (DBNB). Budbreak (BBCH stage 9) and flowering (BBCH stage 60) were determined based on the photographs published by Salinero et al., 2009, “Phenological growth stages of kiwifruit (Actinidia deliciosa ‘Hayward’)”, Scientia Horticulturae 121, 27-31, which is hereby incorporated by reference in its entirety. Graphed and tabulated data represent averages of the 36 replicates and are normalised based on the number of winter buds on each cane.
FIG. 1 illustrates the progression of budbreak in Trial 1. FIG. 2 illustrates the progression of flowering in Trial 1. The progress curves depicted in FIGS. 1 and 2 were fitted to a cumulative normal curve to calculate the midpoints of budbreak and flowering (the dates corresponding to a 50% response) and spread of response time (defined as 4× standard deviation) as summarised in Tables 1 and 2.

[3] = Pahokee muck soil under varying agricultural practices; cited from earlier work
[4] = cited from earlier work
[5] = Trial 5, Bay of Plenty, poor winter chill

Compound: N#CN [HC, hydrogen cyanamide]
- frequency of laterals (in words) (Gold3 [1]; Trial 6, Hawkes Bay, good winter chill): further increased
- % Laterals (Gold3 [1]; in vivo): 31.2%
- KFWB (Gold3 [1]; king flowers per winter bud): 2.61
- SFWB (Gold3 [1]; single flowers per winter bud): 1.8
- % Budbreak (Gold3 [1]; sprayed 11-Aug (30 DBNB)): 55.9%
- frequency of lateral flowers (doubles and triples) (in words) (Gold3 kiwifruit; Trial 4): increased the frequency of lateral flowers
- king flowers per winter bud (KFWB) (in words) (Gold3 kiwifruit; Trial 4, vs untreated): large increases
- KFFS (Gold3 kiwifruit; painted 27 DBNB (20-Aug)): 2.35
- KFFS (Gold3 kiwifruit; painted 34 DBNB (13-Aug)): 2.90
- KFWB (Gold3 kiwifruit; painted 27 DBNB (20-Aug)): 1.19
- KFWB (Gold3 kiwifruit; painted 34 DBNB (13-Aug)): 1.48
- % Budbreak (Gold3 kiwifruit; painted 27 DBNB (20-Aug)): 72.1%
- % Deformed (Gold3 kiwifruit; painted 27 DBNB (20-Aug)): 0.2%
- % Laterals (Gold3 kiwifruit; painted 27 DBNB (20-Aug)): 1.8%
- Floral shoots (Gold3 kiwifruit; painted 27 DBNB (20-Aug)): 71%
- Spread of BB (Gold3 kiwifruit; painted 27 DBNB (20-Aug)): 24
- Advance in Midpoint (Gold3 kiwifruit; painted 27 DBNB (20-Aug)): 15
- Reduction in Spread (Gold3 kiwifruit; painted 27 DBNB (20-Aug)): 17
- % Budbreak (Gold3 kiwifruit; painted 34 DBNB (13-Aug)): 64.5%
- % Deformed (Gold3 kiwifruit; painted 34 DBNB (13-Aug)): 1.7%
- % Laterals (Gold3 kiwifruit; painted 34 DBNB (13-Aug)): 9.9%
- Floral shoots (Gold3 kiwifruit; painted 34 DBNB (13-Aug)): 83%
- Spread of BB (Gold3 kiwifruit; painted 34 DBNB (13-Aug)): 12
- Advance in Midpoint (Gold3 kiwifruit; painted 34 DBNB (13-Aug)): 19
- Reduction in Spread (Gold3 kiwifruit; painted 34 DBNB (13-Aug)): 30
- change in Psa leaf spotting (ANOVA, in words) (Psa; HC after the first two applications, Example 8 at all application dates): significant increase
- % Incidence (Psa; applied 15-Aug (46 DBNB)): 51.5 a %
- % Incidence (Psa; applied 24-Aug (37 DBNB)): 21.7 b %
- % Incidence (Psa; applied 30-Aug (31 DBNB)): 18.3 bc %
- Leaf spotting score (Psa; applied 15-Aug (46 DBNB), 40 leaves rated on 1-5 scale): 1.15 a
- Leaf spotting score (Psa; applied 24-Aug (37 DBNB)): 0.42 b
- Leaf spotting score (Psa; applied 30-Aug (31 DBNB)): 0.31 bc
- % Budbreak 28 DAA (Granny Smith Apples; 28 DAA): 14%
- % Budbreak 39 DAA (Granny Smith Apples; 39 DAA): 39%
- % Budbreak 47 DAA (Granny Smith Apples; 47 DAA): 34%
- % Flowering 54 DAA (Granny Smith Apples; 54 DAA): 66%
- % Fruit set 74 DAA (Granny Smith Apples; 74 DAA): 16%
- flower numbers (in words) (Gold3 [2]; [5]): excessive flower numbers
- frequency of double and triple flowers / laterals (in words) (Gold3 [2]; [5]): nearly doubled
- % Double flowers (Gold3 [2]; in vivo): 14.4%
- % Laterals (Gold3 [2]; in vivo): 18.7%
- % Triple flowers (Gold3 [2]; in vivo): 4.3%
- KFWB (Gold3 [2]; king flowers per winter bud): 3.1
- SFWB (Gold3 [2]; single flowers per winter bud): 2.5
- % Budbreak (Gold3 [2]; sprayed 16-Aug (37 DBNB)): 56.9%
- budbreak response (in words) (Hayward kiwifruit vines; Trial 2, FIG. 3, vs untreated): improved considerably
- Spread of BB (Hayward kiwifruit vines; budbreak): 19
- Advance in Midpoint (Hayward kiwifruit vines; budbreak, vs untreated): 12
- Reduction in Spread (Hayward kiwifruit vines; budbreak, vs untreated): 7
- Spread of BB (Hayward kiwifruit; Table 2, flowering): 7
- Advance in Midpoint (Hayward kiwifruit; Table 2, flowering): 6
- Reduction in Spread (Hayward kiwifruit; Table 2, flowering): 9
- Spread of BB (Hayward kiwifruit; budbreak): 17
- Advance in Midpoint (Hayward kiwifruit; budbreak): 16
- Reduction in Spread (Hayward kiwifruit; budbreak): 32

Compound: O=C(O)c1ccccc1O [Salicylic acid, salicylic acid]
- Biodegradation [3]: rapid
- Solubility in ethanol ([4]; 21° C.): 34.87 % w/w
- Solubility in propanol ([4]; 21° C.): 27.36 % w/w
- Solubility in benzene ([4]; 25° C.): 0.775 % w/w
